Results reported in patent US12268685B2, “Dosing regimen for injectable cetirizine” (JDP THERAPEUTICS LLC, priority 2019, dated 2025).
Entries after “also recorded” stand apart in the source; their conditions may differ. Counter-ions that a name gives are not always drawn. Like-named read-outs stand apart in the source and are kept apart here.

Tests used:
[1] = tested on: adult and pediatric patients; details: cited from earlier work
[2] = tested on: Sprague-Dawley rats; details: rat, in vivo
[3] = tested on: subjects with acute urticaria; details: for Developed other symptoms: No / Developed other symptoms: Yes / Needed additional medication: No / Needed additional medication: Yes / Needed medication prescribed at discharge: No / Needed medication prescribed at discharge: No medication prescribed / Needed medication prescribed at discharge: Yes / Recurrence of allergic symptoms: No / Recurrence of allergic symptoms: Yes / Returned to normal activity: No / Returned to normal activity: Yes: ITT; for Developed other symptoms: No / Developed other symptoms: Yes / Needed additional medication: No / Needed additional medication: Yes / Needed medication prescribed at discharge: No / Needed medication prescribed at discharge: No medication prescribed / Needed medication prescribed at discharge: Yes / Recurrence of allergic symptoms: No / Recurrence of allergic symptoms: Yes / Returned to normal activity: No / Returned to normal activity: Yes / Subjects who returned to the treatment center: No / Subjects who returned to the treatment center: Yes / Effectively treated subjects, yes / Subjects needed rescue drug, yes / Pruritus treatment success, yes: count (percentage); for Course of subject-rated sedation scores after treatment / Patient-rated pruritus severity score, 1 Hour Assessment, mean / Patient-rated pruritus severity score, 1 Hour Change from Baseline, mean / Patient-rated pruritus severity score, 2 Hour Assessment, mean / Patient-rated pruritus severity score, Discharge Assessment, mean / Patient-rated pruritus severity score, Discharge Change from Baseline, mean / Physician-rated urticaria/erythema score, 1 Hour Assessment, mean / Physician-rated urticaria/erythema score, 1 Hour Change from Baseline, mean / Physician-rated urticaria/erythema score, 2 Hour Assessment, mean / Physician-rated urticaria/erythema score, 2 Hour Change from Baseline, mean / Physician-rated urticaria/erythema score, Discharge Assessment, mean / Physician-rated urticaria/erythema score, Discharge Change from Baseline, mean / Subject-rated sedation score, 1 Hour Assessment, mean / Subject-rated sedation score, 1 Hour Change from Baseline, mean / Subject-rated sedation score, 2 Hour Assessment, mean / Subject-rated sedation score, 2 Hour Change from Baseline, mean / Subject-rated sedation score, Discharge Assessment, mean / Subject-rated sedation score, Discharge Change from Baseline, mean / Time spent at the treatment center, Median / Patient-rated pruritus severity score, 2 Hour Change from Baseline, mean (primary efficacy measure) / Patient-rated pruritus severity score, Baseline Assessment, mean / Physician-rated urticaria/erythema score, Baseline Assessment, mean / Subject-rated sedation score, Baseline Assessment, mean / Subjects who returned to the treatment center: No / Subjects who returned to the treatment center: Yes / Time spent at the treatment center, Mean (SD): ITT Population; for Patient-rated pruritus severity score, 2 Hour Change from Baseline, mean (primary efficacy measure): LOCF; for Patient-rated pruritus severity score, Baseline Assessment, mean / Physician-rated urticaria/erythema score, Baseline Assessment, mean / Subject-rated sedation score, Baseline Assessment, mean: before treatment; for Effectively treated subjects, yes: Investigator's opinion; for Proportion of patients returning to any emergency department or clinic: clinical trials, treatment group; for Pruritus treatment success, yes: score reduction of at least 1 unit at 2 hr
[4] = injection; cited from earlier work
[5] = tested on: Sprague-Dawley rats; details: Phase IV
[6] = tested on: Sprague-Dawley rats
Experimental: The study was conducted in four phases (Phase I, II/IIB, III and IV/IVB) via various methods of intravenous injection to rats. The intravenous route is the route of administration for the final finished product in human subjects. […] Phase III was conducted to evaluate repeat dosing using a Sponsor prepared human clinical formulation.
Phase I (Dose escalation): The test item dose formulation was administered in an escalating dose fashion by slow intravenous injection (over approximately 2 minutes) into the tail vein using a hypodermic needle attached to a syringe. A minimum 24-hour observation period was allowed between successive doses. The dose volume was 5 mL/kg for all animals. […] The protocol is described in Table 2.
Sprague-Dawley rats were used for all of the experiments.

[7] = Sprague-Dawley, 30 mg/kg/day, 7 days
[8] = listed as Cetirizine Injection, acetic acid, dihydrochloride

## O=C(O)COCCN1CCN(C(c2ccccc2)c2ccc(Cl)cc2)CC1 (racemic) [cetirizine dihydrochloride, (±)-[2-[4-[(4-chlorophenyl)phenylmethyl]-1-piperazinyl]ethoxy] acetic acid, dihydrochloride]
[1]; oral doses of 70 mg to 800 mg, patients 18 to 81 years
  Most commonly reported adverse reactions in adult overdose cases: somnolence and fatigue
[1]; oral doses of 90 mg to 300 mg, patients 18 months to 15 years
  Adverse reactions reported in pediatric overdose cases: somnolence, difficulty walking, agitation/irritability, hard to swallow/articulate clearly, tachycardia, vomiting, mydriasis, and elevated creatinine phosphokinase
[2]; [7]
  Animals with findings at the dosing site (tail), dark area: 2/10
  Enlargement of bronchial lymph node: 2/10
[2]; Sprague-Dawley, 2 days
  Animals affected by macroscopic findings at the dosing site (tail): 8/10
  Dark focus/area/mottling at the dosing site: 8/10
  Scab at the dosing site: 1/10
  Thickening at the dosing site: 6/10
[2]
  Body weight: no test item related effects noted
[3]; 24 hrs after discharge
  Developed other symptoms: No: 108 (85.04)
  Developed other symptoms: Yes: 12 (9.45)
  Needed additional medication: No: 94 (74.02)
  Needed additional medication: Yes: 26 (20.47)
  Needed medication prescribed at discharge: No: 41 (32.28)
  Needed medication prescribed at discharge: No medication prescribed: 10 (7.87)
  Needed medication prescribed at discharge: Yes: 69 (54.33)
  Recurrence of allergic symptoms: No: 66 (51.97)
  Recurrence of allergic symptoms: Yes: 54 (42.52)
  Returned to normal activity: No: 17 (13.39)
  Returned to normal activity: Yes: 103 (81.10)
[3]; 48 hrs after discharge
  Developed other symptoms: No: 111 (87.40)
  Developed other symptoms: Yes: 10 (7.87)
  Needed additional medication: No: 102 (80.31)
  Needed additional medication: Yes: 19 (14.96)
  Needed medication prescribed at discharge: No: 46 (36.22)
  Needed medication prescribed at discharge: No medication prescribed: 11 (8.66)
  Needed medication prescribed at discharge: Yes: 64 (50.39)
  Recurrence of allergic symptoms: No: 85 (66.93)
  Recurrence of allergic symptoms: Yes: 36 (28.35)
  Returned to normal activity: No: 9 (7.09)
  Returned to normal activity: Yes: 112 (88.19)
[3]
  Course of subject-rated sedation scores after treatment: returning to baseline sedation by 2 hrs
  Patient-rated pruritus severity score, 1 Hour Assessment, mean: 0.81
  Patient-rated pruritus severity score, 1 Hour Change from Baseline, mean: −1.39
  Patient-rated pruritus severity score, 2 Hour Assessment, mean: 0.60
  Patient-rated pruritus severity score, Discharge Assessment, mean: 0.58
  Patient-rated pruritus severity score, Discharge Change from Baseline, mean: −1.62
  Physician-rated urticaria/erythema score, 1 Hour Assessment, mean: 1.27
  Physician-rated urticaria/erythema score, 1 Hour Change from Baseline, mean: −0.54
  Physician-rated urticaria/erythema score, 2 Hour Assessment, mean: 1.19
  Physician-rated urticaria/erythema score, 2 Hour Change from Baseline, mean: −0.63
  Physician-rated urticaria/erythema score, Discharge Assessment, mean: 1.17
  Physician-rated urticaria/erythema score, Discharge Change from Baseline, mean: −0.65
  Subject-rated sedation score, 1 Hour Assessment, mean: 0.62
  Subject-rated sedation score, 1 Hour Change from Baseline, mean: 0.24
  Subject-rated sedation score, 2 Hour Assessment, mean: 0.46
  Subject-rated sedation score, 2 Hour Change from Baseline, mean: 0.08
  Subject-rated sedation score, Discharge Assessment, mean: 0.46
  Subject-rated sedation score, Discharge Change from Baseline, mean: 0.08
  Time spent at the treatment center, Median: 1.42 h
  Patient-rated pruritus severity score, Baseline Assessment, mean: 2.20
  Physician-rated urticaria/erythema score, Baseline Assessment, mean: 1.81
  Subject-rated sedation score, Baseline Assessment, mean: 0.39
  Subjects who returned to the treatment center: No: 120 (94.49)
  Subjects who returned to the treatment center: Yes: 7 (5.51)
  Effectively treated subjects, yes: 103 (81.10)
  Proportion of patients returning to any emergency department or clinic: 6%
  Subjects needed rescue drug, yes: 19 (14.96)
  Pruritus treatment success, yes: 110 (86.61)
[3]; ITT Population analysis
  Time spent at the treatment center shorter than with diphenhydramine injection: 22 min
[3]; acetic acid, dihydrochloride
  Patient-rated pruritus severity score, 2 Hour Change from Baseline, mean (primary efficacy measure): −1.61 (0.944)
[3]; [8]
  Patient-rated pruritus severity score, 2 Hour Change from Baseline, mean (primary efficacy measure): −1.61
  Time spent at the treatment center, Mean (SD): 1.71 (0.868) Hours
[3]; listed as injectable cetirizine, acetic acid, dihydrochloride
  Time spent at the treatment center, Mean (SD): 1.7 (0.9) Hours
[3]; PP Population analysis
  Time spent at the treatment center shorter than with diphenhydramine injection: 27 min
[3]; diphenhydramine-cetirizine, 95% CI=−0.281, 0.396
  Least squares estimated treatment difference, 2 hr change in pruritus severity score: 0.06
[3]; non-inferiority margin −0.50, 2 hr pruritus change
  Effectiveness compared to diphenhydramine injection: non-inferior
[4]
  Hemolysis: free of hemolysis
[5]; 30 mg/kg/day, as of Day 1, acetic acid, dihydrochloride, 30 mg/kg/day
  Other clinical signs: Increases in activity and changes in posture (hunched back); also recorded: Changes in posture and increased activity were noted
[5]; necropsy
  Dark focus of the lungs: 2/4
  Macroscopic findings at the dosing site: no findings at the dosing site were observed
[6]; Sprague-Dawley, rat, in vivo, 50 mg/kg
  Animals found dead: 2/4
[6]; Sprague-Dawley, rat, in vivo, 14 days
  Mortality dose level as multiple of human clinical dose: 58 times of human clinical dose
[6]; rat, in vivo, 100 mg/kg
  Animals found dead: ¾
[6]; single IV injection, tail vein
  Dose levels associated with mortality: ≥ 50 mg/kg

## OCCOCCN1CCN(C(c2ccccc2)c2ccc(Cl)cc2)CC1 (stereo not shown) [hydroxyzine]
[4]
  Hemolysis: significant problem

## CN(C)CCOC(c1ccccc1)c1ccccc1 [Diphenhydramine Injection]
[3]; 24 hrs after discharge
  Developed other symptoms: No: 107 (79.26)
  Developed other symptoms: Yes: 22 (16.30)
  Needed additional medication: No: 94 (69.63)
  Needed additional medication: Yes: 35 (25.93)
  Needed medication prescribed at discharge: No: 39 (28.89)
  Needed medication prescribed at discharge: No medication prescribed: 21 (15.56)
  Needed medication prescribed at discharge: Yes: 69 (51.11)
  Recurrence of allergic symptoms: No: 58 (42.96)
  Recurrence of allergic symptoms: Yes: 71 (52.59)
  Returned to normal activity: No: 29 (21.48)
  Returned to normal activity: Yes: 100 (74.07)
[3]; 48 hrs after discharge
  Developed other symptoms: No: 114 (84.44)
  Developed other symptoms: Yes: 13 (9.63)
  Needed additional medication: No: 101 (74.81)
  Needed additional medication: Yes: 26 (19.26)
  Needed medication prescribed at discharge: No: 31 (22.96)
  Needed medication prescribed at discharge: No medication prescribed: 20 (14.81)
  Needed medication prescribed at discharge: Yes: 76 (56.30)
  Recurrence of allergic symptoms: No: 74 (54.81)
  Recurrence of allergic symptoms: Yes: 53 (39.26)
  Returned to normal activity: No: 22 (16.30)
  Returned to normal activity: Yes: 105 (77.78)
[3]
  Course of subject-rated sedation scores after treatment: remained above baseline through discharge
  Patient-rated pruritus severity score, 1 Hour Assessment, mean: 0.83
  Patient-rated pruritus severity score, 1 Hour Change from Baseline, mean: −1.36
  Patient-rated pruritus severity score, 2 Hour Assessment, mean: 0.70
  Patient-rated pruritus severity score, Discharge Assessment, mean: 0.67
  Patient-rated pruritus severity score, Discharge Change from Baseline, mean: −1.52
  Physician-rated urticaria/erythema score, 1 Hour Assessment, mean: 1.42
  Physician-rated urticaria/erythema score, 1 Hour Change from Baseline, mean: −0.42
  Physician-rated urticaria/erythema score, 2 Hour Assessment, mean: 1.33
  Physician-rated urticaria/erythema score, 2 Hour Change from Baseline, mean: −0.51
  Physician-rated urticaria/erythema score, Discharge Assessment, mean: 1.33
  Physician-rated urticaria/erythema score, Discharge Change from Baseline, mean: −0.51
  Subject-rated sedation score, 1 Hour Assessment, mean: 1.10
  Subject-rated sedation score, 1 Hour Change from Baseline, mean: 0.70
  Subject-rated sedation score, 2 Hour Assessment, mean: 0.88
  Subject-rated sedation score, 2 Hour Change from Baseline, mean: 0.49
  Subject-rated sedation score, Discharge Assessment, mean: 0.86
  Subject-rated sedation score, Discharge Change from Baseline, mean: 0.47
  Time spent at the treatment center, Mean (SD): 2.07 (1.112) Hours
  Time spent at the treatment center, Median: 2.02 h
  Patient-rated pruritus severity score, 2 Hour Change from Baseline, mean (primary efficacy measure): −1.50
  Patient-rated pruritus severity score, Baseline Assessment, mean: 2.19
  Physician-rated urticaria/erythema score, Baseline Assessment, mean: 1.84
  Subject-rated sedation score, Baseline Assessment, mean: 0.39
  Subjects who returned to the treatment center: No: 116 (85.93)
  Subjects who returned to the treatment center: Yes: 19 (14.07)
  Effectively treated subjects, yes: 93 (68.89)
  Proportion of patients returning to any emergency department or clinic: 14%
  Subjects needed rescue drug, yes: 37 (27.41)
  Pruritus treatment success, yes: 111 (82.22)
[3]; listed as diphenhydramine
  Patient-rated pruritus severity score, 2 Hour Change from Baseline, mean (primary efficacy measure): −1.50 (0.984)
  Time spent at the treatment center, Mean (SD): 2.1 (1.1) Hours
